Results on five molecules are retold here after patent publication US10173988B2, “N2-(3,4-dimethylphenyl)-6-((4-(p-tolyl)piperazin-1-yl)methyl)-1,3,5-triazine-2,4-diamine” (GLUCOX BIOTECH AB, priority 2015, dated 2019).

Series [1] deals with Nox2 (Homo sapiens (Human), UniProt P04839). The series can be described thus: Nox2 whole cell assay in isolated neutrophils (isoluminol, PMA-stimulated). Format: cell-based. The note with it: PMA 30 ng/ml. An excerpt: Cells: Human blood was purchased in buffy coat, prepared the same day for isolation of neutrophils, from Labjoy AB, Lund, Sweden. Blood components were separated by density gradient centrifugation using Ficoll-Paque Plus. Plasma, PBMCs and Ficoll were removed before erythrocytes were removed by dextran sedimentation. Remaining erythrocytes were lyses before neutrophils were washed and counted. Isolated neutrophils were kept on ice resuspended in HBSS without Mg and Ca until assayed.
Buffers: The isoluminol buffer contained Isoluminol (0.175 mg/ml) and HRP fraction II (1.75 U/ml). The buffer was prepared by diluting these ingredients at 4× working concentration in HBSS.
Procedures: Compounds (Nox inhibitors) were diluted at 4× working concentration and titrated from 100 μM to 0.006 μM in 1:4 steps. PMA was diluted in Isoluminol buffer at 4× working concentration for a final concentration of 30 ng/ml. […] 25 μl diluted compound or control/well were added to a white 96-well plate. 25 μl/well of PMA diluted in Isoluminol buffer was added to each well. To non-stimulated control wells only Isoluminol buffer was added. Neutrophils were washed and resuspended at 2×10^6 cells/ml in HBSS with Mg and Ca just before adding 50 μl of the neutrophil cell suspension/well, which was followed by immediate initiation of luminescence measurement. Luminescence was measured using a FluoStar Optima (BMG Labtech). Graphs were performed using Prism 5 for Mac OS X (Prism 5.0 Software, San Diego Calif. USA).

Series [2] relates to Caco-2 cell monolayers. In words: Caco-2 permeability assay. In kind it is in vitro ADME. The note with it: mass balance. The protocol:
(§1) Caco-2 membrane permeability was performed in accordance with published protocols. [Hubatch] Caco-2 cell monolayers (passage 94-105) were grown on permeable filter support and used for transport study on day 21 after seeding. Prior to the experiment a drug solution of 10 μM was prepared and warmed to 37° C.
(§2) The Caco-2 filters were washed with prewarmed HBSS prior to the experiment, and thereafter experiment was started by applying the donor solution on the apical side or basolateral side, depending on which direction that was monitored. The transport experiments were carried out at pH 7.4 in both the apical and basolateral chambers. The experiments were performed at 37° C. and with a stirring rate of 500 rpm. The receiver compartment was sampled at 15, 30, and 60 min, and at 60 min also a final sample from the donor chamber was taken in order to calculate the mass balance of the compound. Directly after the termination of experiment the filter inserts were washed with prewarmed HBSS and the membrane integrity was checked. This was performed by trans-epithelial electrical resistance (TEER) measurement. The experiment was validated by inclusion of the para-cellular marker 14Cmannitoland monitoring its permeability during the experiments. Mannitol is a para-cellular marker used for cell monolayer integrity measurements.
(§3) Test compounds were thus added to either the apical or basolateral side of the Caco-2 cell layer, to measure permeability in the absorptive (apical to basolateral, Papp (a-b)) or secretive (basolateral to apical Papp (a-b) directions, respectively. The efflux is calculated as Papp (b-a) divided by Papp (a-b). The results are presented in Table 3.
In general terms: Passage across Caco-2 layers is used to estimate intestinal permeability.

A short description of series [3]: Caco-2 permeability assay. In kind it is in vitro ADME. The note with it: human, Caco-2; for efflux ratio at 60 min: Papp (b-a) divided by Papp (a-b); for Papp A→B at 60 min: apical to basolateral; for Papp A→B at 60 min / Papp B→A at 60 min: pH 7.4, 37° C., test concentration 1 to 10 μM; for Papp B→A at 60 min: basolateral to apical. The protocol: as §1, §2, §3

Series [4] has as its target human Nox1 (Homo sapiens (Human), UniProt Q9Y5S8). The series can be described thus: Nox1 whole cell luminescence assay (luminol, PMA-stimulated). In kind it is cell-based. The following applies: CHO cells stably expressing human Nox1. How it is done: CHO cells modified to stably express human Nox1 were grown in DMEM/F12 gibco 31331 containing 10% FBS and 1% pen/strep at 37° C. in air with 5% CO2. Cells were collected from cultures by Trypsin mediated detachment of adherent cells.
A luminescence assay was used that measures the production of reactive oxygen species in whole cells. Luminol reacts with superoxide and emits light and light is measured with luminometer (Synergy/2 microplate reader, BioTek).
Inhibitors were diluted in a compound plate in DMSO (100%) then transferred to Hanks buffer solution and in assay plate DMSO were 2% in all the wells.
Assay procedure, final well volume 100 μl, 96-well plate: Inhibitors (20 μl) were added, then cell suspension was (100 000 cells/well), incubate 37° C. for 30 min, add PMA (0.9 μM/well) to Luminol reaction mix (Luminol 0.1 mM/well and HRP 3.2 U/well) then this stimulation mix into wells. The plate were then immediately read (steps 5 min each reading) and for 1 h. Data was calculated for the linear part of the curve and IC50 determined.
Compounds (Nox inhibitors) were diluted at 3× working concentration and titrated from 200 μM to 0.003 μM in 11 steps

Series [5] has as its target Nox4 (Homo sapiens (Human), UniProt Q9NPH5). In words: Nox4 whole cell assay (Amplex red, hydrogen peroxide). Format: cell-based. The following applies: HEK (CJ Nox4) cells stably expressing Nox4. The protocol: Cells: HEK (CJ Nox4) stably expressing Nox4 was purchased from Redoxis AB (Lund). The adherent cells were cultivated in RPMI 1640 with L-Glutamine were supplemented with FBS (10%), penicillin (10 U/ml) streptomycin (100 μg/ml) and neomycin (200 μg/ml) at 37° C. in air with 5% CO^2.
Hydrogen peroxide produced by Nox4 was measured (fluorescence emission: 590 and excitation: 544) using Amplex red (Molecular Probes) in Fluorescan Ascent plate reader Type 374. Cells were collected from cultures by Trypsin mediated detachment of adherent cells. Cells were seeded in 96-well plates at a density of 50 000 cells in […] assay volume. […] Nox4 activity was measured up to 100 min with readings every minute. […] Y-axes: turnover of hydrogen peroxide; x-axes: concentration of inhibitor. Inhibitors were diluted in a compound plate in DMSO (100%) then transferred to Hanks buffer solution and in assay plate DMSO were 2% in all the wells.
Compounds (Nox inhibitors) were diluted at 3× working concentration and titrated from 200 μM to 0.003 μM in 11 steps.

Molecules are shown by their SMILES.

Nox4, sequence (Q9NPH5 whole entry, species assumed): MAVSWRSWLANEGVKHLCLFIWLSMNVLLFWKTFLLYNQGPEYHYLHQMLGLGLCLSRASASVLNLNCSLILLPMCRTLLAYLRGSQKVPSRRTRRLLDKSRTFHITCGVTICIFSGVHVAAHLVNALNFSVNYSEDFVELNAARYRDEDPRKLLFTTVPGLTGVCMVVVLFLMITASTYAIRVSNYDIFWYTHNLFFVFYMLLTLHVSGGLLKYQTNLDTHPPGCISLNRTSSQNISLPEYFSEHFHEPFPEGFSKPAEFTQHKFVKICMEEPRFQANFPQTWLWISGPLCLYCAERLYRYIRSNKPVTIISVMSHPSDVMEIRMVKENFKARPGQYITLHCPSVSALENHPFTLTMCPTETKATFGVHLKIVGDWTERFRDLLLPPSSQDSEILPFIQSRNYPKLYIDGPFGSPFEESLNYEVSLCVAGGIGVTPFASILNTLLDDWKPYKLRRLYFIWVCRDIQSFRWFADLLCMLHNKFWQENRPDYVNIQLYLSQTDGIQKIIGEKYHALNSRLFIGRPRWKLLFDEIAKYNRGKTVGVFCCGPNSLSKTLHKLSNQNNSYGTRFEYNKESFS
Nox4, sequence (P13498 2-195 partner, species assumed): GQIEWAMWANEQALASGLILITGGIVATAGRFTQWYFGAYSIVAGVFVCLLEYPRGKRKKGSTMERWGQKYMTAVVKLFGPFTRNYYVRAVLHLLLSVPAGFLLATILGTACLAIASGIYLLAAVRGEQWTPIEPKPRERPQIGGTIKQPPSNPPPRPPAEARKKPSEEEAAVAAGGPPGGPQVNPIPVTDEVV
human Nox1, sequence (Q9Y5S8 whole entry): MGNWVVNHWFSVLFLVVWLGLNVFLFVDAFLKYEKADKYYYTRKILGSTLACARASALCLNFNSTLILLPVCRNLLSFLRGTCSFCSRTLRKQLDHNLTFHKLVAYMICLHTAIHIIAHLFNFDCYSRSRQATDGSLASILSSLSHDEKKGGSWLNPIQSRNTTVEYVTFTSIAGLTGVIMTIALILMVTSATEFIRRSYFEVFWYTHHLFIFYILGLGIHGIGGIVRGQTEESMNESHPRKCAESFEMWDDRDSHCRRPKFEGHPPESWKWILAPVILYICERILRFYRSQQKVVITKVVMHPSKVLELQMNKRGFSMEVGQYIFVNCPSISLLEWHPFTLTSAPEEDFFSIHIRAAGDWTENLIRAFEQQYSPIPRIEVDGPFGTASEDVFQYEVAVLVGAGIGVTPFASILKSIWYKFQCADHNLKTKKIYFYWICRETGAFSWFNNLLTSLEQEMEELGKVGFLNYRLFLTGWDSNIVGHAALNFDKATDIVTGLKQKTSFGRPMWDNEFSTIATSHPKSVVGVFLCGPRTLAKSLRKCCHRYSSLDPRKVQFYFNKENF
human Nox1, sequence (P13498 2-195 partner): as the sequence (P13498 2-195 partner, species assumed) above
Nox2, sequence (P04839 2-570): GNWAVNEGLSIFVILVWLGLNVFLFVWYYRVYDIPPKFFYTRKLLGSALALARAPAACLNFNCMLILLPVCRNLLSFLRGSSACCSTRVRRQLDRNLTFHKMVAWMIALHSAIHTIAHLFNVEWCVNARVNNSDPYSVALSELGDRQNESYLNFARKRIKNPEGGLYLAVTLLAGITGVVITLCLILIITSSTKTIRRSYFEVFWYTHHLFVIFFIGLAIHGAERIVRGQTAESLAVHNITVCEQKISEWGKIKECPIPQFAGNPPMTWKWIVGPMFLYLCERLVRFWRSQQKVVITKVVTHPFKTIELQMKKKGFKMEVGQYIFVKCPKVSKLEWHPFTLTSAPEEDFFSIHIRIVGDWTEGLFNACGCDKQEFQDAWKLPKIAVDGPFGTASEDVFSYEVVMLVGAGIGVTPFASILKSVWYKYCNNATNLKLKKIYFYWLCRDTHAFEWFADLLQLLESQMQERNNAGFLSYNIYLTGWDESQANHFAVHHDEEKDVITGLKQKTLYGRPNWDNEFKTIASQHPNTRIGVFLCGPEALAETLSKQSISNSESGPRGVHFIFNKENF
Nox2, sequence (P13498 2-195 partner): as the sequence (P13498 2-195 partner, species assumed) above

As to `Cc1ccc(Nc2nc(N)nc(CN3CCN(c4ccc(Cl)cc4)CC3)n2)cc1C` [D, 6-((4-(4-chlorophenyl)piperazin-1-yl)methyl)-N^2-(3,4-dimethylphenyl)-1,3,5-triazine-2,4-diamine], the IC50 in series [1] came to 15 µM; in series [4], 200 µM; in series [5], 1680 nM. Also, the values for the MR in series [2] (a-b direction) and in series [2] (b-a direction) were 40% and 16%, respectively. In addition, the efflux ratio at 60 min in series [3] came out at 17. For the same molecule, in series [3], the Papp A→B at 60 min is 1.9 ± 0.2 ×10⁻⁶ cm/s. In series [3], the Papp B→A at 60 min worked out at 33 ± 11 ×10⁻⁶ cm/s.
Regarding `COc1cccc(N2CCN(Cc3nc(N)nc(Nc4ccc(C)c(C)c4)n3)CC2)c1` [A, N^2-(3,4-dimethylphenyl)-6-((4-(3-methoxyphenyl)piperazin-1-yl)methyl)-1,3,5-triazine-2,4-diamine], the IC50 in series [1] is 1.68 µM; in series [4] it was 66 µM; in series [5], 1680 nM. The MR turned out to be 17% in series [2] (a-b direction) and 12% in series [2] (b-a direction). Besides, in series [3], the efflux ratio at 60 min is 1. This molecule also came in with a Papp A→B at 60 min in series [3] of 35 ± 4 ×10⁻⁶ cm/s. This molecule also showed an apparent permeability from basolateral to apical (Papp B→A) at 60 min in series [3] of 34 ± 4 ×10⁻⁶ cm/s.
`COc1cccc(N2CCN(Cc3nc(N)nc(Nc4ccc(C)c(Cl)c4)n3)CC2)c1` [B, N^2-(3-chloro-4-methylphenyl)-6-((4-(3-methoxyphenyl)piperazin-1-yl)methyl)-1,3,5-triazine-2,4-diamine]: the IC50 in series [1] is 17 µM; in series [4], 22 µM; in series [5] it was 840 nM. Moreover, the MR in series [2] (a-b direction) and in series [2] (b-a direction) was 41% each time. For the same molecule, in series [3], the efflux ratio at 60 min amounted to 54. Moreover, the Papp A→B at 60 min in series [3] is 0.8 ± 0.2 ×10⁻⁶ cm/s. The molecule further had a Papp B→A at 60 min in series [3] of 43 ± 5 ×10⁻⁶ cm/s.
As for `Cc1cccc(N2CCN(Cc3nc(N)nc(Nc4ccc(C)c(C)c4)n3)CC2)c1` [C, N^2-(3,4-dimethylphenyl)-6-((4-(m-tolyl)piperazin-1-yl)methyl)-1,3,5-triazine-2,4-diamine], the results for the IC50 in series [1], in series [4] and in series [5] were 59 µM, 162 µM and 1680 nM, respectively. In addition, the MR in series [2] (a-b direction) stood at 37%; in series [2] (b-a direction), 67%. Moreover, the efflux ratio at 60 min in series [3] is 37. In series [3], this molecule returned a Papp A→B at 60 min of 2.4 ± 0.1 ×10⁻⁶ cm/s. Further, the Papp B→A at 60 min in series [3] worked out at 89 ± 27 ×10⁻⁶ cm/s.
With `Cc1ccc(N2CCN(Cc3nc(N)nc(Nc4ccc(C)c(C)c4)n3)CC2)cc1` [inventive, N^2-(3,4-dimethylphenyl)-6-((4-(p-tolyl)piperazin-1-yl)methyl)-1,3,5-triazine-2,4-diamine], the MR in series [2] (a-b direction) was found to be 13%; in series [2] (b-a direction), 14%. In series [3], this molecule returned an apparent permeability from apical to basolateral (Papp A→B) at 60 min of 12 ± 1.6 ×10⁻⁶ cm/s. The molecule further gave a Papp B→A at 60 min in series [3] of 43 ± 5.8 ×10⁻⁶ cm/s. Further, the IC50 in series [4] was 66 µM.

By IC50 is commonly meant the concentration at which inhibition is half-maximal. A word on the efflux ratio: it is the permeability from basolateral to apical divided by that in the opposite direction, in the common usage. For orientation: Papp A→B means how fast a substance crosses the layer from the apical side. Read a high Papp A→B as fast passage. A word on the Papp B→A: it is the apparent permeability from the basolateral to the apical side of a cell layer.
